No end group written: not given here. *: point of attachment. Palmitoyl = CCCCCCCCCCCCCCCC(=O)*
How the values were obtained:
[1] = Zeta potential measurement of the zwitterion-like peptide region alone; assay type: physicochemical
Source text: The alternating charge groups of (KE)4 at neutral pH can create local dipole moments that allow for intermicellar complexation yielding the observed twining behavior. At low pH and high pH utilized, not all of the glutamic acids or lysines will be protonated or deprotonated, respectively, but the local change in (KE)4 block charge is significant enough to repulse one another yielding individual thread-like micelles.

[2] = Micelle morphology and diameter by negative stain TEM; assay type: physicochemical; settings: concentrations above CMC
Description: Micelle morphology was assessed by negative stain transmission electron microscopy (TEM). TEM grids (200 mesh) with standard thickness carbon support films were purchased from Electron Microscopy Sciences and glow discharged for 45 seconds (Pelco Easiglow) to impart a negative charge. Product solutions (5 μL) were added to freshly glow-discharged films and incubated for 5 minutes. Filter paper was used to wick away excess solution and 5 μL of nanotungsten (Nanoprobes, Inc.) was immediately added. After 5 minute of incubation, grids were blotted dried and stored for later use. Samples were imaged with a JEOL JEM-1400 TEM at 120 kV for shape assessment. Tilt series images were collected at 200 kV, spot size 4, gun lens of 5, and extraction voltage of 3950 sA at a nominal 23,000× magnification with an underfocus of 1 sm. Tilt increments were collected every 2 degrees with a tilt range of ±70°, starting at 0°, with the negative half of the tilt series collected using FEI Xplore3D. Frames were aligned using IMOD with the patch-tracking algorithm using the entire imaged area for frame alignment and reconstructed with the weighted back projection algorithm. Micellar diameters were measured using ImageJ software (NIH). Three different spots from each micelle were measured and the results from three separate micelles were averaged for each group.

[3] = system: macrophages (MØs); assay: TNF-α secretion from LPS-activated MØs incubated with VIP materials; assay type: cell-based
Description: (§1) The anti-inflammatory effect of VIPAMs were explored by incubating MOs and DCs with LPS and different VIP materials at low (i.e. 1 μM) or high (20 μM) concentrations (FIG. 41A, FIG. 41B, and FIG. 41C).

[4] = system: dendritic cells (DCs); assay: TNF-α secretion from LPS-activated DCs incubated with VIP materials; assay type: cell-based; settings: low (1 μM) or high (20 μM) concentration
Description: as §1

[5] = system: dendritic cells (DCs); assay: CD86 expression on DCs incubated with VIP materials; assay type: cell-based; settings: for CD86 expression on activated DCs: with LPS
Description: as §1

[6] = system: dendritic cells (DCs); assay: CCL22 production from DCs treated with VIP formulations; assay type: cell-based; settings: 24 hours; for CCL22 production from immature DCs: vs no stimulus; for DC CCL22 production: immature and mature DCs
Description: Thus, CCL22 production from DCs treated with different VIP formulations was evaluated.

[7] = cited from earlier work
[8] = Critical micelle concentration (CMC) by DPH fluorescence; assay type: physicochemical; settings: VIP amphiphiles
Description: Critical micelle concentration (CMC) was measured indirectly by 1,6-diphenyl-1,3,5-hexatriene (DPH) fluorescence. […] Peptide amphiphile solutions were serially diluted in 1 μM 1,6-diphenyl-1,3,5 hexatriene (DPH) containing 0.01% THF and allowed to equilibrate for 1 hour prior to fluorescence measurement (ex. 350 nm, em. 428 nm) by a BioTek Cytation 5 fluorospectrophotometer. The resulting data was fit with two trend lines and the fluorescence inflection point was interpreted as the CMC (Table 4 and FIG. 23, FIG. 24, FIG. 25, FIG. 26, FIG. 27, FIG. 28, FIG. 29, and FIG. 30).
VIPA design and physical characterization: Based on our recent research, two VIPA chemistries were produced. The first VIPA was synthesized by directly conjugating palmitic acid (Palm) to the N-terminus of VIP to form Palm-VIP, […] (SEQ ID NO: 3), (pVIPA—FIG. 39A). The second VIPA included a zwitterion-like peptide region between Palm and VIP yielding PalmK-(EK)4-VIP, […] (SEQ ID NO: 4) (pzVIPA—FIG. 39B). […] While the addition of the hydrophilic block may have been expected to maintain or decrease the CMC, peptide folding to orient the most hydrophilic section externally can induce bending in the PA that may prevent straightforward micellar packing. […] This increased length is likely due to the intermicellar electrostatic complexation we have previously described for similar triblock PAs. […]

[9] = Micelle/peptide secondary structure by circular dichroism; assay type: physicochemical; settings: CD analysis; compared with VIP and pVIPA
Description: Micelle secondary structure was investigated by circular dichroism using a circular dichroism spectrometer model 62DS (Aviv Biomedical, Inc., Lakewood, NJ). Micelle solutions (40 μM) were loaded into a 1 mm cuvette and measured a total of 10 times from 190 to 250 nm with an interval of 1 nm. The averaged data was curve fit using a linear combination of polylysine basis structures to calculate approximate α-helix, β-sheet, and random coil content.

[10] = system: dendritic cells (DCs); settings: after 48 hours of incubation; previous results; cited from earlier work
[11] = low (1 μM) or high (20 μM) concentration

## -Lys-Glu-Lys-Glu-Lys-Glu-Lys-Glu- (KEKEKEKE) [(KE)4]
[1]; pH 2
  Zeta Potential: 31.4 ± 2.9 mV
[1]; pH 7
  Zeta Potential: −7.8 ± 1.2 mV
[1]; pH 11
  Zeta Potential: −18.1 ± 4.7 mV

## Palm-VIP [pVIPA]
[2]
  micelle shape: cylindrical micelles
[3]; [11]
  TNF-α secretion from activated MØs: unable to enhance the TNF-α suppressive effects of VIP
[4]
  TNF-α secretion from activated DCs: completely nullified VIP effects
[5]; high concentration, no LPS
  CD86 expression in immature DCs: significantly increased
[5]; high concentration (20 μM)
  CD86 expression on activated DCs: enhanced
[6]; high concentration, vs LPS-stimulated mature DC control
  CCL22 production from mature DCs: enhanced CCL22 production
[6]; high concentration
  CCL22 production from immature DCs: induced greater CCL22 production

## N[C@@H](CCC(=O)O)C(=O)O [glutamic acid]
[7]
  pKa: 4.07

## PalmK-(EK)4-VIP (K(Palmitoyl)EKEKEKEKHSDAVFTDNYTRLRKQMAVKKYLNSILN-NH2; not fully specified) [pzVIPA]
[8]
  CMC: 9.3 µM
[2]
  micelle shape: braided micelles
[9]
  α-helical conformation: more abundant
[3]; effect only at high concentration (20 μM)
  TNF-α secretion from activated MØs: nearly completely abrogated
[4]
  TNF-α secretion from activated DCs: maintained VIP-based TNF-α secretion
[5]; no LPS
  CD86 cell surface expression on immature DCs: no increase
[5]; high concentration (20 μM)
  CD86 expression on activated DCs: significantly limited
[6]; high concentration
  CCL22 production from immature DCs: induced greater CCL22 production

## CCCCCCCCCCCCCCCC(=O)O [Palm, palmitic acid, reference compound]
[3]; [11]
  TNF-α secretion from activated MØs: no TNF-α nor CD86 regulation
[4]
  TNF-α secretion from activated DCs: no TNF-α nor CD86 regulation
[5]; [11]
  CD86 expression on activated DCs: no TNF-α nor CD86 regulation
[6]
  DC CCL22 production: no impact on CCL22 induction

## Vasoactive intestinal peptide (HSDAVFTDNYTRLRKQMAVKKYLNSILN) [VIP, reference compound]
[3]; [11]
  TNF-α secretion from activated MØs: modestly reduce
[4]
  TNF-α secretion from activated DCs: modestly reduce
[5]; [11]
  CD86 expression on activated DCs: modestly reduce
[6]
  DC CCL22 production: unable to induce
[10]
  CCL22 production: induces significant CCL22 production

From patent publication US12006350B2, “Triblock peptide amphiphiles, micelles and methods of use” (The Curators of the University of Missouri, priority 2017, dated 2024)
